# Laboratory results from patent publication US20100004244A1, “USE OF CB2 RECEPTOR AGONISTS FOR PROMOTING NEUROGENESIS” (priority 2006, published 2010).
# What was measured:
# neural progenitors [1] = experiment: BrdU cell proliferation assay in dissociated neurospheres; format: cell-based, mouse; conditions: for effect on HU-308 induction of cell proliferation: PD98059 10 μM, LY294,002 5 μM, with HU-308 30 nM, FIG. 3E, confirmed in neurosphere generation assays; for number of BrdU-incorporating cells: 30 nM, 16 hours, FIG. 3D
# Method: These studies involve the use of bromodeoxyuridine (BrdU), a thymidine analog incorporated into DNA during the S phase of the cell cycle, which allows visualizing cell proliferation. Neural progenitor proliferation was determined by quantifying BrdU-positive cells 16 hours after incubation with 10 μg/ml BrdU, followed by immunostaining [Aguado, T. et al., FASEB J. 19, 1704-6, 2005].
# Results are expressed as percentage of BrdU-positive cells over total cells.
# neural progenitors [2] = experiment: Neurosphere generation and self-renewal of neural progenitors; format: cell-based, mouse; conditions: for neurosphere generation in CB2-deficient neural progenitors / primary neurosphere generation / neural progenitor self-renewal: 30 nM; for primary neurosphere generation: wild-type E17.5 progenitors, 7 days; for neural progenitor self-renewal: wild-type progenitors, 5 consecutive passages, FIG. 3C
# Method: Multipotent self-renewing progenitors were obtained from the dissected cortices of mice at the indicated developmental stages and grown in chemically-defined medium constituted by Dulbecco's modified Eagle's and F12 media supplemented with N2 (Invitrogen), 0.6% glucose, non-essential amino acids, 50 mM Hepes, 2 μg/ml heparin, 20 ng/ml epidermal growth factor and 20 ng/ml basic fibroblast growth factor [Aguado, T. et al., J. Neurosci. 26, 1551-61, 2006]. Clonal neurospheres were cultured at 1000 cells/ml, dissociated with accutase (Sigma-Aldrich, Missouri, USA) and experiments were carried out with early (up to 10) passage neurospheres. Neurosphere generation experiments were performed in 96-well dishes with 100 μl of medium, and the number of neurospheres was quantified at predetermined time points by phase-contrast microscopy. Embryonic neural progenitors from wild-type and CB2-deficient mice were cultured (10,000 cells/ml) in the continuous presence of cannabinoids or controls for the indicated number of passages (one passage every 4 days).
# Adult neural progenitors were obtained from hippocampi of 4-month-old adult mice and cultured as described above. Neural progenitor cell differentiation was performed as described.
# [3] = system: embryonic hippocampal neural progenitor cells; conditions: Jiang et al. 2005; cited from earlier work
# newborn neurons = conditions: chronic administration, Jiang et al. 2005; cited from earlier work
# basal ganglia = conditions: cited from earlier work
# [4] = system: neural progenitor cell proliferation in the dentate gyrus; experiment: In vivo hippocampal neural progenitor proliferation (BrdU-positive cells in dentate gyrus); design: species or system mouse; conditions: FIG. 4B; for hippocampal progenitor proliferation in vivo: wild-type adult mice, i.p. 5 consecutive days, HU-308 15 mg/kg, SR144528 1 mg/kg
# Method: Adult CB2 receptor knock-out male mice (8-week old) and their respective wild-type littermates were injected i.p. with 50 mg/kg BrdU daily for 3 days, and perfused 1 day later. […] Control animals received the corresponding vehicle injection (100 μl PBS supplemented with 0.5 mg defatted bovine serum albumin and 4% dimethylsulfoxide). BrdU was administered daily during the pharmacological administration period. In the case of experiments on kainate-induced excitotoxicity, animals were injected with 15 mg/kg kainate or vehicle. E17.5 mouse embryos from mothers injected twice with 100 mg/kg BrdU (30-min interval between injections) were obtained 1 h after the first injection.
# At the end of the study, animals were euthanized and their brains were fixed into 4% paraformaldehyde in PBS until further analysis.
# Mice were perfused and immunostaining was performed in 30-μm brain coronal free-floating sections [Rueda, D. et al., J. Biol. Chem. 277, 4645-50, 2002]. Sections were incubated with polyclonal anti-CB2 antibody together with anti-nestin, anti-Neu, or anti-GFAP antibodies followed by secondary staining for rabbit and mouse IgGs with highly cross-adsorbed AlexaFluor 594 and AlexaFluor 488 secondary antibodies (Molecular Probes), respectively. Neural progenitor proliferation was determined with anti-BrdU antibody and secondary anti-rat IgG-AlexaFluor 594 in sections counterstained with TOTO-3 iodide. Preparations were examined using Leica software and SP2 AOBS microscope with 2 passes with a Kalman filter and a 1024×1024 collection box. BrdU^+ cells were counted in the subgranular zone and granule cell layer of the dentate gyrus. A 1-in-6 series of adult hippocampal mouse sections located between 1.3 and 2.1 mm posterior to bregma were employed. […] Frozen mouse embryo sections were incubated with anti-BrdU antibody together with Yoyo-1 iodide, and positive cells were determined in 7 sections per animal.
# Results are expressed as number of BrdU positive cells per section in the dentate gyrus of the animals.
# human CB1 receptors = human CB1 receptors (Homo sapiens, UniProt P21554); conditions: read-out: IC50 for binding to human CB1 receptors; as disclosed in WO 03/064359; cited from earlier work
# Sequence of human CB1 receptors (P21554 whole entry): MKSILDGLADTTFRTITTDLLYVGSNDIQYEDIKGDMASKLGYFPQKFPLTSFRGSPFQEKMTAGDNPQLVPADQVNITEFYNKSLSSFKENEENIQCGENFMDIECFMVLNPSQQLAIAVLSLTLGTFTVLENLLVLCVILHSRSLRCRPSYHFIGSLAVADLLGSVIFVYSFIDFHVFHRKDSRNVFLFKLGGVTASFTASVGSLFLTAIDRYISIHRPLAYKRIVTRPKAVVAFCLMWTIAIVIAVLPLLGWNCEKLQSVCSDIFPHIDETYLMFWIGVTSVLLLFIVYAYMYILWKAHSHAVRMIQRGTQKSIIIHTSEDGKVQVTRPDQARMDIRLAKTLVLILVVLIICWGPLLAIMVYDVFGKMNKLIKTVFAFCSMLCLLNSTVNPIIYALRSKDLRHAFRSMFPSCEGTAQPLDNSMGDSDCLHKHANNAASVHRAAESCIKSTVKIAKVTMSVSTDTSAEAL
# substantia nigra = conditions: mice treated with the neurotoxin MPTP; cited from earlier work
# ERK and Akt = ERK and Akt phosphorylation in neural progenitors (Western blot); format: cell-based, mouse; conditions: FIG. 3F
# Method: Identical protein amounts of cleared cell extracts were subjected to SDS-PAGE, transferred to PVDF membranes, and following antibody incubations developed with enhanced chemiluminiscence detection kit [Aguado, T. et al., FASEB J. 19, 1704-6, 2005]. Loading controls were performed with an anti-α-tubulin antibody.
# cannabinoid receptors = conditions: cited from earlier work
compound,measurement,setting,value
"O=c1cc(N2CCOCC2)oc2c(-c3ccccc3)cccc12 [LY294,002]",effect on HU-308 induction of cell proliferation,neural progenitors [1],prevented by both inhibitors
CCCC(C)(C)c1ccc2c(c1)OC(C)(C)[C@@H]1CC=C(C)C[C@@H]21 [JWH-133],number of BrdU-incorporating cells,neural progenitors [1],increased the number of BrdU-incorporating cells in a CB2-dependent manner
same,neurosphere generation in CB2-deficient neural progenitors,neural progenitors [2]; FIG. 3B,neither HU-308 nor JWH-133 was able to enhance neurosphere generation
same,percentage of neurosphere number relative to vehicle incubations,neural progenitors [2]; adult progenitors,149±6%
same,percentage of neurosphere number relative to vehicle incubations,neural progenitors [2]; postnatal progenitors,154±22%
same,primary neurosphere generation,neural progenitors [2]; FIG. 3B,increased
same,neural progenitor self-renewal,neural progenitors [2],increased
"CCCCCCC(C)(C)c1cc(O)c2c(c1)OC(C)(C)[C@@H]1CC=C(CO)C[C@@H]21 [HU-210, 7-hydroxy-Δ^6-tetrahydrocannabinol-1,1-dimethyl-heptyl]",proliferation and differentiation of embryonic hippocampal neural progenitor cells,[3],promotes proliferation of said embryonic cells without affecting their differentiation
same,measures of anxiety- and depression-like behavior,newborn neurons,reduced measures of anxiety- and depression-like behavior
same,number of newborn neurons,newborn neurons,increased the number of newborn neurons
COc1cccc(-c2cc(=O)c3ccccc3o2)c1N [PD98059],effect on HU-308 induction of cell proliferation,neural progenitors [1],prevented by both inhibitors
"CCCCCCC(C)(C)c1cc(OC)c(C2C=C(CO)C3CC2C3(C)C)c(OC)c1 (single isomer, unassigned; (+)) [HU-308, (+) {4-[4-(1,1-dimethylheptyl)-2,6-dimethoxyphenyl]-6,6-dimethyl-bicyclo[3.1.1]hept-2-en-2-yl}-methanol]",GABA level and dopamine transmission in the non-lesioned side,basal ganglia; non-lesioned side,did not alter the parameters monitored
same,extent of cell death in the basal ganglia,"basal ganglia; rats, intrastriatal injection of malonate",reduces the extent of cell death
same,hippocampal progenitor proliferation in CB2-deficient mice,"[4]; CB2-/- adult mice, 15 mg/kg i.p. 5 days",lack of HU-308 agonistic effect
same,hippocampal progenitor proliferation in vivo,[4],increased progenitor proliferation
same,IC50,human CB1 receptors,3.6 µM
same,number of BrdU-incorporating cells,neural progenitors [1],increased the number of BrdU-incorporating cells in a CB2-dependent manner
same,extent of cell death in the substantia nigra,substantia nigra,reduces the extent of cell death
same,neurosphere generation in CB2-deficient neural progenitors,neural progenitors [2]; FIG. 3B,neither HU-308 nor JWH-133 was able to enhance neurosphere generation
same,primary neurosphere generation,neural progenitors [2]; FIG. 3B,increased
same,neural progenitor self-renewal,neural progenitors [2],increased
same,ERK and Akt phosphorylation,ERK and Akt; 15 min (ERK) or 2 min (Akt),stimulated ERK and Akt
SR144528,hippocampal progenitor proliferation in vivo,[4],exerted the opposite action
same,effect on agonist-increased primary neurosphere generation and self-renewal,"neural progenitors [2]; 2 μM with HU-308 or JWH-133 30 nM, FIG. 3B, 3C",both actions were prevented
same,effect on agonist-increased neurosphere generation in postnatal and adult progenitors,neural progenitors [2]; data not shown,this action was prevented
same,effect on HU-308 stimulation of ERK and Akt,ERK and Akt,this action was prevented
"CCCCCCC(C)(C)c1cc(O)c2c(c1)OC(C)(C)[C@@H]1CC=C(CO)C[C@@H]21 [HU-211, 7-hydroxy-Δ^6-tetrahydrocannabinol-1,1-dimethyl-heptyl]",affinity to the cannabinoid receptors,cannabinoid receptors,low affinity
